# From ChEMBL document CHEMBL3044959, “Feeding deterrents from Aconitum episcopale roots against the red flour beetle, Tribolium castaneum” (J Agric Food Chem, 2011)
# Columns and labels:
# [1] = test system: Tribolium castaneum; assay: Feeding deterrent activity against Tribolium castaneum (red flour beetle) adults using wheat flour assessed as inhibition of insect feeding measured after 3 days; assay type: functional, organism-based
# [2] = Toxicity in ip dosed Mus musculus (mouse); assay type: organism-based; conditions: in vivo
# [3] = Toxicity in iv dosed Mus musculus (mouse); assay type: organism-based; conditions: in vivo
# [4] = test system: Tribolium castaneum; assay: Feeding deterrent activity against Tribolium castaneum (red flour beetle) adults using wheat flour assessed as consumption of diet at 300 ppm measured after 3 days relative to untreated control; assay type: functional
# [5] = test system: Tribolium castaneum; assay: Feeding deterrent activity against Tribolium castaneum (red flour beetle) adults using wheat flour assessed as consumption of diet at 1000 ppm measured after 3 days relative to untreated control; assay type: functional
# [6] = test system: Tribolium castaneum; assay: Feeding deterrent activity against Tribolium castaneum (red flour beetle) adults using wheat flour assessed as consumption of diet at 10 ppm measured after 3 days relative to untreated control; assay type: functional
# [7] = test system: Tribolium castaneum; assay: Feeding deterrent activity against Tribolium castaneum (red flour beetle) adults using wheat flour assessed as consumption of diet at 30 ppm measured after 3 days relative to untreated control; assay type: functional
# [8] = test system: Tribolium castaneum; assay: Feeding deterrent activity against Tribolium castaneum (red flour beetle) adults using wheat flour assessed as consumption of diet at 100 ppm measured after 3 days relative to untreated control; assay type: functional
# [9] = Toxicity in po dosed Mus musculus (mouse); assay type: organism-based; conditions: in vivo
Structure (SMILES),EC50 [1],LD50 [2],LD50 [3],Activity [4],Activity [5],Activity [6],Activity [7],Activity [8],LD50 [9]
CCN1C[C@]2(C)CC[C@H](O)[C@@]34C5C[C@@H]6[C@@H](OC)C[C@@](O)(C5[C@H]6O)[C@@H](CC23)C14 (some centres not stated) [KARACOLINE],395.2 ppm,298 mg/kg,51.5 mg/kg,54.66%,43.84%,92.96%,77.95%,65.07%,
CCN1C[C@]2(C)CC[C@H](OC)[C@]34C1[C@H](C[C@H]23)[C@@]1(O)C[C@H](OC)[C@H]2C[C@@H]4[C@@H]1[C@H]2O [SACHACONITINE],427.8 ppm,,,53.7%,38.08%,93.97%,71.78%,62.19%,
CCN1C[C@]2(COC)CC[C@H](OC)[C@]34C1[C@H](C[C@H]23)[C@@]1(O)C[C@H](OC)[C@H]2C[C@@H]4[C@@H]1[C@H]2O [TALATISAMINE],342.8 ppm,,,58.63%,48.77%,92.47%,75.89%,60.82%,
CCN1C[C@]2(COC)CC[C@H](OC)[C@]34C1[C@H]([C@H](OC)[C@H]23)[C@@]1(O)C[C@H](OC)[C@H]2C[C@@H]4[C@@H]1[C@H]2O [CHASMANINE],,,,69.59%,53.29%,90.55%,72.47%,61.64%,
CCN1C[C@]2(COC)[C@H](O)C[C@H](OC)[C@]34C1[C@H]([C@H](OC)[C@H]23)[C@@]1(OC(C)=O)C[C@H](OC)[C@@]2(O)C[C@@H]4[C@@H]1[C@H]2OC(=O)c1ccc(OC)cc1 [YUNACONITINE],654.3 ppm,,,,,96.75%,85.48%,68.37%,2.97 mg/kg
CCN1C[C@]2(COC)CC[C@H](OC)[C@]34C1[C@H]([C@H](OC)[C@H]23)[C@@]1(OC(C)=O)C[C@H](OC)[C@@]2(O)C[C@@H]4[C@@H]1[C@H]2OC(=O)c1ccc(OC)cc1 [CRASSICAULINE A],1134.5 ppm,,,53.83%,39.59%,97.81%,89.73%,78.36%,
CC(=O)O[C@@H]1C[C@H](O)[C@@]23CO[C@@H](O)[C@]1(C)[C@@H]2C[C@@H](O)[C@]1(C)[C@@H]3C(=O)[C@H](OC(C)=O)[C@@]2(C)[C@H](c3ccoc3)C[C@H]3O[C@]321 [TOOSENDANIN],94.3 ppm,,,,,,,,
